Data set [1] is described as follows: Stability of sample solutions at room temperature by HPLC. To be noted: sample solution at room temperature, HPLC at 0, 1, 2, 4, 6, 12 and 24 h. In kind it is physicochemical. The protocol:
The intra-day precision was determined by investigating the analytes in sextuplicates during a single day, and the inter-day precision was determined by conducting the intra-day experiment on two consecutive days. […] Each one sample solution of the seven flavonoids was kept at room temperature, and then their stabilities were determined by injecting them into apparatus at 0, 1, 2, 4, 6, 12, and 24 h.

Data set [2] can be described thus: Transport experiment across Caco-2 cell monolayer (Papp). The class given is in vitro ADME, human. Conditions: human. The protocol:
(§1) For cells differentiation to form a confluent monolayer, Caco-2 cells were seeded into the inserts of the 12-well Transwell plates at the density of 1.0×10^5 cells/cm^2. The culture medium was replaced on every other day in the first week, and then at daily intervals for the apical (AP) side and 2 days intervals for the basal (BL) side until the transport experiment was performed 21 days after seeding. The AP and BL sides contained 0.5 and 1.5 mL of culture medium, respectively. […] The cell inserts were considered as qualified only if the resistance reached above 600 Ω cm^2.
(§2) On day 21, the transport experiment was initiated by removal of the culture medium from AP and BL sides. The Caco-2 monolayers were rinsed twice with pre-warmed Hanks balanced salt solution (HBSS) and were incubated with the same solution at 37°C for 30 min. The seven individual test compounds and an equimolar mixture of them were pre-dissolved in DMSO, and then diluted to 25, 50, and 100 μmol/L with an appropriate volume of HBSS to allow the final concentration of DMSO to be less than 1%. The test compounds were added to the AP (0.5 mL) or BL side (1.5 mL), while the receiving chamber contained the corresponding volume of HBSS. Incubation was performed at 37°C for 180 min, with shaking at 50 rpm. At 30, 60, 90, 120, 150, and 180 min, each 0.2 mL of the solution from BL or AP side was collected, and replaced with an equal volume of HBSS. The samples were frozen immediately and stored below-20°C before analysis.
(§3) The apparent permeability coefficients (Papp) were determined in this study by HPLC quantification of the compounds in the receiver chamber after transport across the Caco-2 monolayer. The calculation was carried out in accordance with the formula Papp = (dQ/dt)×(1/A)×(1/C0), wherein dQ/dt was the rate of appearance of the test compound in the receiver compartment (μmol/s); C0 was the initial concentration of test compound in the donor compartment (μmol/mL); and A was the surface area of the Caco-2 monolayer (cm^2). The percentage transported (%) was calculated using the formula % transported = QB/(CS×VD)×100, wherein QB was the quantity of compound in the receiver compartment (μmol); CS was the concentration of test compound in the donor compartment (μmol/mL); VD was the liquid volume of the donor compartment (mL). The transport rate (μmol/h/cm^2) was calculated using the formula transport rate = QB/(t×A), wherein QB was the quantity of compound in the receiver compartment (μmol); t was the incubation time (h); A was the surface area of the Caco-2 monolayer (cm^2).
(Caco-2 cells form a polarised layer with tight junctions and transporters.)

The subject of the next data set is Caco-2 cell monolayer. The description is as above. The class given is in vitro ADME, human. To be noted: for Absorption mechanism: from P ratio, time course and concentration course; for P ratio Papp AP→BL/Papp BL→AP: 50 μmol/L, 90 min. The protocol:
as §1, §2, §3

A further data set has as its system Caco-2 cells. Nature of the data set: MTT assay, survival rate of Caco-2 cells. The class given is cell-based, human. Conditions: 4 h. The source says:
The human colon adenocarcinoma cell line Caco-2 (No. 3111C0001CCC000100, passage 32) was obtained from the Cell Resource Center, Peking Union Medical College (the headquarters of National Infrastructure of Cell Line Resource, NSTI) on May 3rd, 2013. The cell line was checked free of mycoplasma contamination by PCR and culture, its species origin was confirmed with PCR, and its identity was authenticated with STR profiling (FBI, CODIS). All results of the above tests can be viewed on the website (http://cellresource.cn). The cells were cultured in 25 cm^2 flasks in DMEM medium supplemented with 10% (v/v) FBS, 1% (v/v) NEAA, and 1% (v/v) penicillin-streptomycin, in an atmosphere of 5% CO2 at 37°C and constant moisture. The culture medium was replaced every 2 to 3 days, and the cells were split 1:2 or 1:3 as 80% confluence was obtained.
Caco-2 cells at logarithmic growth phase were seeded into 96-well plates and incubated at 37°C in an atmosphere of 5% CO2 and constant moisture in the incubator. After the cells reached confluence, they were cultured in quadruplicate with 100 μL of HBSS solution (negative control) and compound-containing HBSS solution (seven flavonoids or paclitaxel (positive control) at the concentrations of 25, 50, and 100 μmol/L, respectively) for 4 h. Then, HBSS solution was replaced by 100 μL of MTT solution (0.5 mg/mL), and the supernatant was discarded after 4 h of incubation at 37°C. The cells were shaken with 150 μL of DMSO for 10 min, and the absorbance was read on the microplate reader at 570 nm. The survival rate %=A¯/A0¯×100 , wherein A¯ was the average absorbance value of treatment or positive control group, and A0¯ was the average absorbance value of negative control group.
Background: Tetrazolium assays rely on reduction of a dye to a coloured formazan, in cell work by metabolically active cells.

Another data set relates to murine ear edema model. To be noted: cited from earlier work.
The test system of the next data set is Staphylococcus aureus. More on the design: method as in earlier work. To be noted: cited from earlier work.
Data set [3] concerns parainfluenza virus type 3 (Para 3). Further details: method as in PMID 11849843. To be noted: cited from earlier work.
Another data set deals with T1, P-glycoprotein (P-gp) (Homo sapiens, UniProt P08183).
T1 construct: endogenous in cells; host or cells: Caco-2 cells
In words: Transporter inhibition experiment with verapamil hydrochloride (P-gp) in Caco-2 monolayer. In kind it is in vitro ADME. Conditions: 50 μmol/L compound, 100 μmol/L verapamil hydrochloride, AP to BL. The method, then:
On day 21, transport study was initiated by carefully removing the culture medium from both AP and BL sides. The Caco-2 monolayers were rinsed twice with pre-warmed HBSS and were incubated with the same solution at 37°C for 30 min. […] The final concentration of DMSO in these solutions was less than 1%. […] Incubation was performed at 37°C for 180 min, with shaking at 50 rpm. […] The samples were frozen immediately and stored below-20°C before analysis.

A further data set deals with S. epidermidis. Further details: method as in earlier work. To be noted: cited from earlier work.
Setting [4] is: Caco-2, in the equimolar mixture of the seven flavonoids.
[5] abbreviates: in the equimolar mixture of the seven flavonoids.

The structures appear in SMILES notation. In brackets after ≈: the same amount, converted by molar mass.

T1 sequence (P08183 whole entry): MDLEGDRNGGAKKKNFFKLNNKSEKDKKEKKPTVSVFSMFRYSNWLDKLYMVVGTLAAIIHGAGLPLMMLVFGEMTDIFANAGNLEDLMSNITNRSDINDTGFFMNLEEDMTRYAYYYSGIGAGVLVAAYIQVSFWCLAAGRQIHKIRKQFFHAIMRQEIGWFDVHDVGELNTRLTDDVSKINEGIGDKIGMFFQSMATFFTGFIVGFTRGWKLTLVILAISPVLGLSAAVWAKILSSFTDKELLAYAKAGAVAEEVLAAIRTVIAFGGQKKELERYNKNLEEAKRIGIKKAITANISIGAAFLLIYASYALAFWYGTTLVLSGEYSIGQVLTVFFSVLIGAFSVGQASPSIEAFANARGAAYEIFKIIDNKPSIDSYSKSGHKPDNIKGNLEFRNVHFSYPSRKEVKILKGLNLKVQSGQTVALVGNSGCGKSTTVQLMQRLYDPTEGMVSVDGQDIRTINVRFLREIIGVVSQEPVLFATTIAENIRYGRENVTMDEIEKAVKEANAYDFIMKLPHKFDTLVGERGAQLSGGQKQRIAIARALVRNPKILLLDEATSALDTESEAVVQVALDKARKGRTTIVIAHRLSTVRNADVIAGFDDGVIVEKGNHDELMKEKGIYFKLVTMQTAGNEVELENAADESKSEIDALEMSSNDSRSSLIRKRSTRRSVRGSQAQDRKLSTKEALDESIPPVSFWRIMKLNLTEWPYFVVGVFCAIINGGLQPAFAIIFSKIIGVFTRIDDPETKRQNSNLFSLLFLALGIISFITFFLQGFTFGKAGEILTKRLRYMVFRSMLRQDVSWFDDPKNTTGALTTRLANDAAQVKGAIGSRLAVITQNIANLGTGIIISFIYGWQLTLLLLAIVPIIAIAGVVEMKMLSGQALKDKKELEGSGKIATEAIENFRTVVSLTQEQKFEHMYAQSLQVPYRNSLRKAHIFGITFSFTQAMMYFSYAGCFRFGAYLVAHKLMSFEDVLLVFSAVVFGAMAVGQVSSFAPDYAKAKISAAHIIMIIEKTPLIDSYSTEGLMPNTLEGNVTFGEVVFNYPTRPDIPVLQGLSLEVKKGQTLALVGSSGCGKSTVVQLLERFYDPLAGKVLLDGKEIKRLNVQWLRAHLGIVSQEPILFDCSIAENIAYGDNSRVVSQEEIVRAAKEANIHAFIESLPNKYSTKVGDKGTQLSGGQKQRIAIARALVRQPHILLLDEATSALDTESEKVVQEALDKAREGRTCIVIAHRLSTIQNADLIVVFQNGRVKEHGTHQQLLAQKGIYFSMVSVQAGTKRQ

Usually Papp A→B stands for the apparent permeability from the apical to the basolateral side of a cell layer. Usually Papp B→A stands for how fast a substance crosses the layer from the basolateral side. Regarding `O=c1cc(-c2ccc(O)cc2)oc2c([C@@H]3O[C@H](CO)[C@@H](O)[C@H](O)[C@H]3O[C@@H]3O[C@H](CO)[C@H](O)[C@H](O)[C@H]3O)c(O)cc(O)c12` [2”-O-β-L-galactopyranosylvitexin, 8-((2S,3R,4S,5S,6R)-4,5-dihydroxy-6-(hydroxymethyl)-3-(((2S,3R,4S,5R,6R)-3,4,5-trihydroxy-6-(hydroxymethyl)tetrahydro-2H-pyran-2-yl)oxy)tetrahydro-2H-pyran-2-yl)-5,7-dihydroxy-2-(4-hydroxyphenyl)-4H-chromen-4-one], the “RSD% values for 24-hour stability” value in data set [1] was determined as 2.65%. The Papp A→B at 90 min, 50 μmol/L amounted to 1.92 ± 0.42 ×10⁻⁶ cm/s in [2] (setting [4]) and 1.85 ± 0.02 ×10⁻⁶ cm/s in [2] (Caco-2, individual compound). The Papp B→A at 90 min, 50 μmol/L in data set [2] (setting [4]) is 0.81 ± 0.27 ×10⁻⁶ cm/s; in data set [2] (Caco-2, individual compound) it was 4.68 ± 0.02 ×10⁻⁶ cm/s. In addition, in the data set with Caco-2 cell monolayer, the Absorption mechanism result is recorded as “transporter mediated efflux in addition to passive diffusion”.

For the molecule `COc1cc(O)c2c(=O)cc(-c3ccc(O)c(O)c3)oc2c1[C@@H]1O[C@H](CO)[C@@H](O)[C@H](O)[C@H]1O` [Isoswertiajaponin, 2-(3,4-dihydroxyphenyl)-5-hydroxy-7-methoxy-8-((2S,3R,4R,5S,6R)-3,4,5-trihydroxy-6-(hydroxymethyl)tetrahydro-2H-pyran-2-yl)-4H-chromen-4-one], the “Survival rates (%)” value is 116.7±8.9% in the data set on Caco-2 cells (25 μmol/L), 124.6±5.4% in the data set with Caco-2 cells (50 μmol/L) and 109.1±12.6% in the data set with Caco-2 cells (100 μmol/L). Besides, the “RSD% values for 24-hour stability” value in [1] is recorded as 2.95%. Moreover, the Papp A→B at 90 min, 50 μmol/L was 1.44 ± 0.47 ×10⁻⁶ cm/s in data set [2] (setting [4]) and 0.98 ± 0.03 ×10⁻⁶ cm/s in data set [2] (Caco-2, individual compound). In addition, the Papp B→A at 90 min, 50 μmol/L in data set [2] (setting [4]) was 0.54 ± 0.31 ×10⁻⁶ cm/s; in data set [2] (Caco-2, individual compound), 1.19 ± 0.07 ×10⁻⁶ cm/s. Moreover, in the data set with Caco-2 cell monolayer, the Absorption mechanism entry is on record as “passive diffusion without participation of transporter”. The “P ratio Papp AP→BL/Papp BL→AP” value is given as 2.66 with Caco-2 cell monolayer (setting [5]); 0.83 in the data set on Caco-2 cell monolayer (individual compound); around 1 in the data set with Caco-2 cell monolayer (individual compound, listed as isoswertiajaponin).

For the molecule `COc1cc(O)c2c(=O)cc(-c3ccc(O)cc3)oc2c1[C@@H]1O[C@H](CO)[C@@H](O)[C@H](O)[C@H]1O` [Isoswertisin, 5-hydroxy-2-(4-hydroxyphenyl)-7-methoxy-8-((2S,3R,4R,5S,6R)-3,4,5-trihydroxy-6-(hydroxymethyl)tetrahydro-2H-pyran-2-yl)-4H-chromen-4-one], the “Survival rates (%)” value in the data set with Caco-2 cells (25 μmol/L) is recorded as 110.8±9.9%; with Caco-2 cells (50 μmol/L), 115.3±5.5%; in the data set with Caco-2 cells (100 μmol/L), 116.0±8.6%. The “RSD% values for 24-hour stability” value in data set [1] was found to be 2.82%. Moreover, the Papp A→B at 90 min, 50 μmol/L in data set [2] (setting [4]) worked out at 2.69 ± 0.37 ×10⁻⁶ cm/s; in data set [2] (Caco-2, individual compound) it was 1.07 ± 0.08 ×10⁻⁶ cm/s. Further, the Papp B→A at 90 min, 50 μmol/L amounted to 1.59 ± 0.2 ×10⁻⁶ cm/s in [2] (setting [4]) and 0.94 ± 0.18 ×10⁻⁶ cm/s in [2] (Caco-2, individual compound). Besides, the Absorption mechanism entry in the data set on Caco-2 cell monolayer is recorded as “passive diffusion without participation of transporter”. For the same molecule, the “P ratio Papp AP→BL/Papp BL→AP” value is recorded as 1.69 in the data set with Caco-2 cell monolayer (setting [5]); 1.14 with Caco-2 cell monolayer (individual compound); around 1 with Caco-2 cell monolayer (individual compound, listed as isoswertisin).

As to `O=c1cc(-c2ccc(O)c(O)c2)oc2c([C@@H]3O[C@H](CO)[C@@H](O)[C@H](O)[C@H]3O)c(O)cc(O)c12` [Orientin, 2-(3,4-dihydroxyphenyl)-5,7-dihydroxy-8-((2S,3R,4R,5S,6R)-3,4,5-trihydroxy-6-(hydroxymethyl)tetrahydro-2H-pyran-2-yl)-4H-chromen-4-one], the “Anti-inflammatory effect against murine ear edema” value with murine ear edema model was “possess anti-inflammatory effects”. The entries for the “Survival rates (%)” value in the data set with Caco-2 cells (25 μmol/L), in the data set on Caco-2 cells (50 μmol/L) and in the data set on Caco-2 cells (100 μmol/L) were 100.4±1.3%, 114.3±7.5% and 111.5±2.4%, respectively. In addition, the “MIC toward S. aureus” value with Staphylococcus aureus was 25 µg/mL (≈ 55.8 µM). Moreover, the “IC50 against parainfluenza virus type 3” value in [3] is 11.7 µg/mL (≈ 26.1 µM). Besides, the “RSD% values for 24-hour stability” value in [1] came out at 2.35%. Moreover, the “Substrate of P-gp” value at P-glycoprotein (P-gp) is recorded as “substrates of P-gp”. The “Effect of verapamil hydrochloride on the transport” value at P-glycoprotein (P-gp) (180 min) is recorded as “increased”. Besides, the Papp A→B at 90 min, 50 μmol/L is 1.14 ± 0.27 ×10⁻⁶ cm/s in [2] (setting [4]) and 0.75 ± 0.05 ×10⁻⁶ cm/s in data set [2] (Caco-2, individual compound). In addition, the basolateral-to-apical permeability (Papp B→A) at 90 min, 50 μmol/L in data set [2] (setting [4]) was 0.88 ± 0.31 ×10⁻⁶ cm/s; in [2] (Caco-2, individual compound) it was 1.14 ± 0.08 ×10⁻⁶ cm/s. In addition, in the data set on Caco-2 cell monolayer, the Absorption mechanism entry is “transporter mediated efflux in addition to passive diffusion”. Further, the entries for the “P ratio Papp AP→BL/Papp BL→AP” value with Caco-2 cell monolayer (setting [5]) and in the data set on Caco-2 cell monolayer (individual compound) were 1.29 and 0.66, respectively. For the same molecule, in the data set with S. epidermidis, the “MIC toward S. epidermidis” value is 25 µg/mL (≈ 55.8 µM).

Take `CC(=O)O[C@H]1C(=O)[C@@]2(C)[C@H]([C@H](OC(=O)c3ccccc3)[C@]3(O)C[C@H](OC(=O)[C@H](O)[C@@H](NC(=O)c4ccccc4)c4ccccc4)C(C)=C1C3(C)C)[C@]1(OC(C)=O)CO[C@@H]1C[C@@H]2O` [Paclitaxel, reference compound]: the “Survival rates (%)” value amounted to 67.3±8.2% in the data set on Caco-2 cells (25 μmol/L); 67.3% in the data set on Caco-2 cells (25 μmol/L, listed as paclitaxel); 45.5±6.7% in the data set with Caco-2 cells (50 μmol/L); 45.5% in the data set on Caco-2 cells (50 μmol/L, listed as paclitaxel); 37.4±3.5% in the data set with Caco-2 cells (100 μmol/L); 37.4% in the data set on Caco-2 cells (100 μmol/L, listed as paclitaxel).

As a reminder, the Papp is a coefficient for how fast a substance crosses the barrier. Read a high Papp as fast passage. On to `CC(C)NCC(O)COc1cccc2ccccc12` (stereo not drawn) [propranolol, reference compound], for which the apparent permeability (Papp) in data set [2] (Caco-2, standard compounds, validation of the monolayer model) amounted to 14.4 ×10⁻⁶ cm/s.

Source of the values: PMC4366261, “Characterization of the Intestinal Absorption of Seven Flavonoids from the Flowers of Trollius chinensis Using the Caco-2 Cell Monolayer Model” (PLoS ONE, 2015).
